In PubChem BioAssay (NCI):
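96-well plates; 48 h exposure; 5 concentrations. Endpoints by linear interpolation between flanking doses. Not reached: highest tested concentration assigned. TGI is the concentration that stops growth completely.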

Key:
Experiment in all cases: NCI-60 cell line screen, 48 h
[1] = test system: SR leukemia
[2] = test system: PC-3 prostate
[3] = test system: SNB-19 CNS
[4] = test system: K-562 leukemia
[5] = test system: NCI-H226 lung
[6] = test system: M14 melanoma
[7] = test system: HOP-62 NSCLC
[8] = test system: ACHN renal
[9] = test system: SF-539 CNS
[10] = test system: SK-OV-3 ovarian
[11] = test system: RPMI-8226 leukemia
[12] = test system: DU-145 prostate
[13] = test system: SF-268 CNS
[14] = test system: KM12 colon
[15] = test system: HS 578T breast

SMILES | TGI [1] [µM] | TGI [2] [µM] | TGI [3] [µM] | TGI [4] [µM] | TGI [5] [µM] | TGI [6] [µM] | TGI [7] [µM] | TGI [8] [µM] | TGI [9] [µM] | TGI [10] [µM] | TGI [11] [µM] | TGI [12] [µM] | TGI [13] [µM] | TGI [14] [µM] | TGI [15] [µM]
C#CCOC(=O)C=[N+]=[N-] | > 10 | > 10 | > 10 | > 10 | > 10 | > 10 | > 10 | > 10 | > 10 | > 10 | > 10 | > 10 | > 10 | > 10 | 
O=C1CC(Nc2ccccc2)c2c(Cl)sc(Cl)c21 (configuration not stated) |  | 3.06 | 20.5 | > 100 | 24 | 3.4 | 8.1 | 2.41 | 2.24 | 26.3 | 0.0461 | 3 |  | 1.94 | > 100
c1ccc(CCCN2C3CCC2CN(CCOC(c2ccccc2)c2ccccc2)C3)cc1 |  | 19.4 | 28.3 | 64 | 25.9 | 17.3 | 31.4 | 26.2 | 22.4 | 29.3 | 7.83 | 32 | 29.2 | 24.2 | 33.7
O=c1[nH]c2c(C(F)(F)F)c(Cl)c(-c3ccccc3)nc2o1 |  | 76.2 | > 100 | 84.3 | > 100 | > 100 | > 100 | > 100 |  | 64.7 |  | > 100 | > 100 | > 100 | > 100
O=S(=O)(O)c1cc(O)c(N=NC2S(=O)(=O)OCCOS2(=O)=O)c2ccccc12 |  | > 100 | > 100 | > 100 | > 100 | > 100 | > 100 | > 100 | > 100 | > 100 | > 100 | > 100 | > 100 | > 100 | > 100
CC(C)NC1CCCCC2c3ccccc3C12O (configuration not stated) | > 100 |  | > 100 | > 100 | > 100 | > 100 | > 100 | > 100 |  | > 100 | > 100 |  | > 100 | > 100 | 
COc1ccc(/C=C2\C(=O)N(C(=O)c3ccc(NC(C)=O)cc3)N=C2C)cc1OC | > 100 |  | > 100 | > 100 | > 100 | > 100 | > 100 | > 100 | > 100 |  | > 100 |  | > 100 | > 100 | 
COC(=O)[C@H](Cc1ccccc1)NC(=O)N(CCN(CCC#N)C(=O)N[C@H](C(=O)OC)C(C)C)c1ccccc1 |  | > 100 | > 100 |  | > 100 | > 100 | > 100 | > 100 | > 100 | > 100 | > 100 | > 100 | > 100 | > 100 | > 100
